Test results: patent US10597388B2, “Pyridazinone herbicides” (FMC CORPORATION, priority 2014, dated 2020)

Key:
Assay in all cases: Test E greenhouse herbicide test, pre- and postemergence
Format in all cases: in vivo
Conditions in all cases: Preemergence
[1] = test system: Italian ryegrass (Lolium multiflorum)
Procedure, shortened: (§1)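 For each species, sown seed in silt loam and young plants (2 to 18 cm) in a peat/vermiculite medium were each treated with compound dissolved in surfactant-containing, non-phytotoxic solvent. After 14 to 21 d under greenhouse conditions, effects were visually rated, 100 meaning complete control.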

[2] = test system: barnyardgrass (Echinochloa crus-galli)
Procedure, shortened: as §1

[3] = test system: beggarticks (hairy beggarticks, Bidens pilosa)
Procedure, shortened: as §1

[4] = test system: crabgrass, Brazilian (Brazilian crabgrass, Digitaria horizontalis)
Procedure, shortened: as §1

[5] = test system: crabgrass, large (large crabgrass, Digitaria sanguinalis)
Procedure, shortened: as §1

[6] = test system: dayflower (Virginia (VA) dayflower, Commelina virginica)
Procedure, shortened: as §1

[7] = test system: foxtail, giant (giant foxtail, Setaria faberii)
Procedure, shortened: as §1

[8] = test system: foxtail, green (green foxtail, Setaria viridis)
Procedure, shortened: as §1

[9] = test system: johnsongrass (Sorghum halepense)
Procedure, shortened: as §1

[10] = test system: kochia (Kochia scoparia)
Procedure, shortened: as §1

[11] = test system: lambsquarters (Chenopodium album)
Procedure, shortened: as §1

[12] = test system: nutsedge, yellow (yellow nutsedge, Cyperus esculentus)
Procedure, shortened: as §1

[13] = test system: panicum, fall (fall panicum, Panicum dichotomiflorum)
Procedure, shortened: as §1

[14] = test system: ragweed (common ragweed, Ambrosia elatior)
Procedure, shortened: as §1

[15] = test system: sandbur (southem sandbur, Cenchrus echinatus)
Procedure, shortened: as §1

[16] = test system: velvetleaf (Abutilon theophrasti)
Procedure, shortened: as §1

[17] = test system: waterhemp (common waterhemp, Amaranthus rudis)
Procedure, shortened: as §1

[18] = 62 g ai/ha, scale 0 to 100 (0 no effect, 100 complete control)
[19] = 125 g ai/ha, scale 0 to 100 (0 no effect, 100 complete control)
[20] = 31 g ai/ha, scale 0 to 100, 0 no effect, 100 complete control
[21] = 250 g ai/ha, visual, scale 0 no effect to 100 complete control
[22] = 125 g ai/ha, visual, scale 0 no effect to 100 complete control

Cc1ccc2ccccc2c1-c1c(O)c(C)nn(C)c1=O [Compound 59]
95: Plant response rating, Crabgrass, Large [5, 21] | Plant response rating, Foxtail, Giant [7, 18] | Plant response rating, Foxtail, Green [8, 22] | Plant response rating, Panicum, Fall [13, 20] | Plant response rating, Ragweed [14, 18] | Plant response rating, Velvetleaf [16, 18] | Plant response rating, Velvetleaf [16, 19]
90: Plant response rating, Barnyardgrass [2, 21] | Plant response rating, Crabgrass, Brazil [4, 18] | Plant response rating, Foxtail, Green [8, 18] | Plant response rating, Kochia [10, 18] | Plant response rating, Sandbur [15, 19] | Plant response rating, Sandbur [15, 21] | Plant response rating, Velvetleaf [16, 20]
65: Plant response rating, Foxtail, Green [8, 20]
70: Plant response rating, Nutsedge, Yellow [12, 21] | Plant response rating, Sandbur [15, 18] | Plant response rating, Sandbur [15, 20]
35: Plant response rating, Nutsedge, Yellow [12, 18]
60: Plant response rating, Barnyardgrass [2, 22] | Plant response rating, Crabgrass, Brazil [4, 20]
75: Plant response rating, Nutsedge, Yellow [12, 19] | Plant response rating, Waterhemp [17, 20]
80: Plant response rating, Crabgrass, Large [5, 22] | Plant response rating, Dayflower, VA [6, 22] | Plant response rating, Dayflower, VA [6, 21] | Plant response rating, Johnsongrass [9, 22] | Plant response rating, Johnsongrass [9, 21] | Plant response rating, Kochia [10, 20]
40: Plant response rating, Dayflower, VA [6, 18]
98: Plant response rating, Foxtail, Giant [7, 22] | Plant response rating, Panicum, Fall [13, 18] | Plant response rating, Velvetleaf [16, 21]
25: Plant response rating, Barnyardgrass [2, 18] | Plant response rating, Johnsongrass [9, 18]
0: Plant response rating, Barnyardgrass [2, 20] | Plant response rating, Crabgrass, Large [5, 20] | Plant response rating, Johnsongrass [9, 20]
100: Plant response rating, Ryegrass, Italian [1, 18] | Plant response rating, Ryegrass, Italian [1, 19] | Plant response rating, Ryegrass, Italian [1, 20] | Plant response rating, Ryegrass, Italian [1, 21] | Plant response rating, Beggarticks [3, 18] | Plant response rating, Beggarticks [3, 20] | Plant response rating, Beggarticks [3, 22] | Plant response rating, Beggarticks [3, 21] | Plant response rating, Crabgrass, Brazil [4, 22] | Plant response rating, Crabgrass, Brazil [4, 21] | Plant response rating, Foxtail, Giant [7, 21] | Plant response rating, Foxtail, Green [8, 21] | Plant response rating, Kochia [10, 22] | Plant response rating, Kochia [10, 21] | Plant response rating, Lambsquarters [11, 18] | Plant response rating, Lambsquarters [11, 20] | Plant response rating, Lambsquarters [11, 22] | Plant response rating, Lambsquarters [11, 21] | Plant response rating, Panicum, Fall [13, 19] | Plant response rating, Panicum, Fall [13, 21] | Plant response rating, Ragweed [14, 19] | Plant response rating, Ragweed [14, 20] | Plant response rating, Ragweed [14, 21] | Plant response rating, Waterhemp [17, 18] | Plant response rating, Waterhemp [17, 19] | Plant response rating, Waterhemp [17, 21]
50: Plant response rating, Crabgrass, Large [5, 18] | Plant response rating, Nutsedge, Yellow [12, 20]
10: Plant response rating, Dayflower, VA [6, 20]
85: Plant response rating, Foxtail, Giant [7, 20]
